Consider 9 compounds from publication PMC3463238 (Toxicology letters, 2012).

Series [1] can be described thus: Reactivity of styrene oxide and halogenated styrene oxides to cysteamine. In kind it is physicochemical. The note with it: oxide 1.0 μM, cysteamine 100 μM, phosphate buffer, 37 °C.
Series [2] is described as follows: Observed stability of the compound. In kind it is physicochemical.
Series [3] concerns CYP2E1 transgenic cells (h2E1). Conditions: for Decrease in cell viability relative to vehicle group: 24 h, 100 μM.
Series [4] in a line: in vitro. Conditions: human.
Series [5] can be described thus: in vitro. The note with it: human. The source holds these as a separate data set.
The test system of series [6] is cellular proteins of wild-type cells. The note with it: human, 24 h, 100 μM.
For series [7], the system named is cellular proteins of CYP2E1 cells. Conditions: human, 24 h, 100 μM.
The target in the next series is recombinant human CYP2E1 (Homo sapiens, UniProt P05181). The note with it: pH 7.4.
The nature of series [8]: Cellular GSH contents in CYP2E1 cells. The note with it: human.
Series [9] is described as follows: Cytotoxicity in CYP2E1 transgenic cells. Conditions: human.
Series [10] concerns cellular proteins of CYP2E1 cells. Kind of series: Cellular protein covalent binding of 14C-labeled styrenes in CYP2E1 cells. The note with it: 14C-labeled compound 100 μM, 24 h.

Like-named read-outs stand apart in the source and are kept apart here. Marks after values point to notes of the source that are not given here.

Sequence of recombinant human CYP2E1 (P05181 whole entry): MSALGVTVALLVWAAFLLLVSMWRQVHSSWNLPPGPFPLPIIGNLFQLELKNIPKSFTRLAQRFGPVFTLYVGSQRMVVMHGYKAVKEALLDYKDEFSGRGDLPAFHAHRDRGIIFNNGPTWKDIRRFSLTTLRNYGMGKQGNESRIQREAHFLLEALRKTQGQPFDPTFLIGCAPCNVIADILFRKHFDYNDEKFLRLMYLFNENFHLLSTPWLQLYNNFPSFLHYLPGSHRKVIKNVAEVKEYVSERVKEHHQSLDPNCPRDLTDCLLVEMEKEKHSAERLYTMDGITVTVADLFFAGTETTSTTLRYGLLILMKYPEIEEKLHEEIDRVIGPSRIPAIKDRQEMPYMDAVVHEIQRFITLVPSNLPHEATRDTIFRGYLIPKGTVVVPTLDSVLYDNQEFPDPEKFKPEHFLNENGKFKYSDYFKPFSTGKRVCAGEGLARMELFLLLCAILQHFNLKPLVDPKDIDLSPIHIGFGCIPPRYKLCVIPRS

As for `Brc1ccc(C2CO2)cc1` (stereo not drawn) [4-bromostyrene oxide], the “Rate constant for production of the cysteamine adducts” value (“Rate constant for production” for short) in series [1] is 29.3 ± 3.19 min⁻¹.
Regarding `Clc1ccc(C2CO2)cc1` (stereo not drawn) [4-chlorostyrene oxide], the “Rate constant for production” value in series [1] was found to be 16.1 ± 2.08 min⁻¹.
For `Fc1ccc(C2CO2)cc1` (stereo not drawn) [4-fluorostyrene oxide], the “Rate constant for production” value in series [1] amounted to 15.7 ± 1.57 min⁻¹.
On to `C=Cc1ccc(I)cc1` [4-iodostyrene], for which the “Stability” value in [2] is “unstableness”. Besides, the “Toxicity to CYP2E1 cells compared with another compound” value in [3] (human) is given as “more toxic than 4-bromostyrene”.
By viability is commonly meant the share of living cells, or the viability signal relative to a control. As to `C=Cc1ccc(Br)cc1` [Br-ST, 4-bromostyrene], in “in vitro [4]”, the viability at 24 h, 100 µM turned out to be 39.6 ± 4.1%. Also, the activity at 3 h, 100 µM in “in vitro [5]” was 61 ± 6.5%. Further, in series [6], the “Fold lower radioactivity bound to proteins in wild-type cells than CYP2E1 cells” value was 5 fold. Besides, in series [3] (human), the “Decrease in cell viability relative to vehicle group” value was 39.6%. The “Binding load (radioactivity bound to cellular proteins)” value in series [7] was found to be 6.17 nmol/mg protein. Also, on recombinant human CYP2E1, the “Bioactivation index (k × Vmax/Km)” value was 31.9 ± 3.48 ^c.
In the series “in vitro [4]”, `C=Cc1ccc(Cl)cc1` [Cl-ST, 4-chlorostyrene] gave a viability at 24 h, 100 µM of 57.7 ± 9.9%. Also, in the series “in vitro [5]”, the activity at 3 h, 100 µM turned out to be 71.2 ± 5.8%. Also, the “Decrease in cell viability relative to vehicle group” value in series [3] (human) was 57.7%. For the same compound, on recombinant human CYP2E1, the “Bioactivation index (k × Vmax/Km)” value is 15.8 ± 2.03 ^b.
Take `C=Cc1ccc(F)cc1` [F-ST, 4-fluorostyrene]: the viability at 24 h, 100 µM in the series “in vitro [4]” turned out to be 78.8 ± 3.2%. Besides, the activity at 3 h, 100 µM in “in vitro [5]” stood at 82.4 ± 2.2%. Besides, the “Toxicity to CYP2E1 cells compared with another compound” value in [3] is listed as “little difference in toxicity”. Further, the “Binding load (radioactivity bound to cellular proteins)” value in [7] is 2.27 nmol/mg protein. Besides, on recombinant human CYP2E1, the “Bioactivation index (k × Vmax/Km)” value was 10.4 ± 0.64 ^a.
The compound `C=Cc1ccccc1` [ST, Styrene] had an activity at 3 h, 100 µM in series [8] of 83.7 ± 2.1%. In series [9], the viability at 24 h, 100 µM was determined as 80 ± 3%. In [10], the “Binding load (radioactivity bound to cellular proteins)” value is 2.02 nmol/mg protein.
Regarding `c1ccc(C2CO2)cc1` (stereo not drawn) [styrene oxide], in [1], the “Rate constant for production” value stood at 13.4 ± 1.88 min⁻¹.
